Reference: US20150004110A1, “NOVEL ANTI-AGING AND DEPIGMENTING COSMETIC COMPOSITIONS” (DIVERCHIM, priority 2011, published 2015)

Tested on: skin explants (abdominoplasty)
Test: Histological assessment of the general morphology of skin explants maintained in survival
Assay type: cell-based, human
Conditions: 2 μg/mL in DMSO, after 9 days of survival
Procedure: 1. Preparation of the explants • During abdominoplasty of a person, 45 skin explants were prepared. The explants were put in BEM medium (BIO-EC's Explants Medium) for survival at 37° C. in humid atmosphere, enriched with 5% CO2.
2. Application of the products • The solutions are prepared in DMSO from pure products, in order to obtain final concentrations of […] by incorporating an identical volume of 10 μl in each well and for each treatment. The treatment was carried out in the survival medium on days 0, 1, 2, 5 and 7.
3. Taking samples • On D0, the 3 explants of batch TO were taken and each explant was cut in two. One part was fixed in buffered formol for observation of the general morphology. The other was frozen and stored at −80° C. • On D5 and D9, 3 explants from each batch were taken and treated in the same way.
4. […]
5. Microscopic observations • The microscopic observations were carried out by light microscopy and fluorescence microscopy, using a Orthoplan-type Leica microscope, with ×25 objective. The images were recorded with a Sony DXC 390P tri CCD camera and stored using the Leica IM1000 data archiving software. • The general morphology was observed on sections in paraffin after staining with Masson trichrome, Goldner variant according to procedure MO-H-157. […]

C[C@]12CC[C@H](O)CC1=CC[C@@H]1[C@@H]2CC[C@]2(C)C(=O)CC[C@@H]12 [(+)-dehydroisoandrosterone, reference compound]
General morphology: epidermal structure and papillary dermis: does not alter the epidermal structure or the papillary dermis
